Source: patent US20250134853A1, “COMPOUNDS AND METHODS FOR USING GALLOYLATED POLYPHENOLS TO TREAT DISEASES MEDIATED BY THIOL ISOMERASES” (Beth Israel Deaconess Medical Center, Inc., priority 2023, published 2025)
Entries after “also recorded” stand apart in the source; their conditions may differ.

Key:
SARS-CoV-2 M^pro [1] = biological target: T1, SARS-CoV-2 M^pro (Severe acute respiratory syndrome coronavirus 2, UniProt P0DTD1); assay: SARS-CoV-2 M^pro proteolytic activity; assay type: biochemical
PDI [2] = biological target: T2, PDI (Homo sapiens, UniProt P07237); assay: Di-eosin-GSSG disulfide reductase assay, PDI; assay type: biochemical
T2 construct: FLAG; made in house; host or cells: Escherichia coli Origami B (DE3)
Procedure: Di-eosin-GSSG disulfide reductase assay. The probe di-eosin glutathione disulfide, di-eosin-GSSG, was prepared by incubating 100 μM of GSSG with 1 mM of eosin isothiocyanate in 100 mM potassium phosphate containing 2 mM EDTA (pH 7.4), at 25° C. overnight in the dark. The mixture was passed down a PD-10 column and different fractions were collected. A fold change of fluorescence (Ex: 520 nm, Em: 550 nm) was calculated using samples subjected to either vehicle or 20 mM of DTT. Any fraction with a fold change >5 was kept. Using a stock of 10 mM eosin isothiocyanate, a standard curve was generated and concentration of samples were determined accordingly. Di-eosin-GSSG cleavage of purified thiol isomerases and PDI domains was monitored in a 96-well fluorescence plate format. PDI, CGXC-PDI variants, ERp5, ERp57, ERp46 and PDI domains were assayed at 50 nM in the presence or absence of the indicated small molecules. The assay included a thiol isomerase assay buffer (39 mM KH2PO4, 61 mM K2HPO4, 2 mM EDTA, 5 M DTT, pH 7.4) and 150 nM of the di-eosin-GSSG probe. The increase in fluorescence was determined for 60 min by excitation at 520 nm and emission at 550 nm in a Synergy Biotek 4. The reduction of 150 nM di-eosin-GSSG by 5 μM DTT in the presence or absence of mentioned small molecule or proteins served as a negative control.

SARS-CoV-2 M^pro [3] = biological target: T1, SARS-CoV-2 M^pro; conditions: cited from earlier work
ERp57 = biological target: T3, ERp57 (Homo sapiens, UniProt P30101); assay: Di-eosin-GSSG disulfide reductase assay, ERp57; assay type: biochemical
T3 construct: FLAG; made in house; host or cells: Escherichia coli Origami B (DE3)
T3 sequence (P30101 25-505): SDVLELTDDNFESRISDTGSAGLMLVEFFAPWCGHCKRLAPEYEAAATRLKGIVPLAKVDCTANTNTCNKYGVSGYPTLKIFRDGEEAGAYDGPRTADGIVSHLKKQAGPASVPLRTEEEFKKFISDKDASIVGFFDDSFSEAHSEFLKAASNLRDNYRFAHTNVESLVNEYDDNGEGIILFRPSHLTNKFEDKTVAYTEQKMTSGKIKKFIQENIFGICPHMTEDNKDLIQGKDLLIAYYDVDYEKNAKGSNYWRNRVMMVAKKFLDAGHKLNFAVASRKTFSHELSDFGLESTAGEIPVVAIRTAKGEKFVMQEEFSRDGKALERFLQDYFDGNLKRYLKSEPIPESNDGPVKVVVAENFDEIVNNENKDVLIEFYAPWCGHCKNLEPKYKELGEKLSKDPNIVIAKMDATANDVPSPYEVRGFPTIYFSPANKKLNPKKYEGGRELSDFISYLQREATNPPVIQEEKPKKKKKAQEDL
From the text: Recombinant protein purification. Recombinant ‘double-tagged’ (streptavidin-binding protein-tagged and FLAG-tagged) full-length PDI, ERp57, recombinant His-tagged full-length ERp5, ERp72, PDI domain fragments, and PDI mutant were cloned into a pET-15b vector at the NdeI and BamHI sites and transformed into Escherichia coli Origami B (DE3) cells (EMD Chemicals). The recombinant proteins were expressed and isolated by affinity chromatography with complete His-Tag purification resin (Roche Applied Science) or Pierce High-Capacity Streptavidin Agarose beads and purified on a Superdex 200 (GE Healthcare).
(§1) Di-eosin-GSSG disulfide reductase assay. […] Any fraction with a fold change >5 was kept.

[4] = tested on: thrombus formation following laser injury of cremaster arterioles; assay: Laser-injury thrombosis model; assay type: in vivo, mice
Procedure: Laser-injury thrombosis model. Thrombus formation in response to laser injury was measured as described previously. See Grover S P, et al. J. Thromb. Haemost. 18:3078-85, 2020; Koseoglu S, et al. Arterioscler. Thromb. Vasc. Biol. 33:481-8, 2013; and Matsuura S, et al. Arterioscler. Thromb. Vasc. Biol. 40:e262-e72, 2020. Briefly, cremaster muscle arterioles were injured using a MicroPoint Laser System (Andor, Belfast, UK). Platelet and fibrin accumulation were measured by infusion of Dylight 649-labeled anti-platelet (CD42b; 0.1 μg/g body weight; Emfret Analytics) and DyLight 488-labeled anti-fibrin (clone 59D8; 0.3 μg/g) antibodies through a jugular vein catheter. Data were acquired before and after laser injury using the brightfield, 488/520 nm, and 640/670 nm channels. Images were captured for 250 seconds at 2 frames/s using a CCD camera (ORCA Flash 4.0, Hamamatsu Photonics, Japan) on an AX-70 fluorescence microscope (Olympus, Japan). Data were analyzed using Slidebook 6.0 (Intelligent Imaging Innovations). Data from 16 to 30 thrombi were used to determine the median value of the integrated fluorescence intensity to account for variability in thrombus formation under any given experimental condition. AUC was calculated for individual thrombi and normalized to injury lengths to evaluate statistical significance. Injury lengths were determined as previously described in Grover S P, et al. J. Thromb. Haemost. 18:3078-85, 2020.
The differences in platelet accumulation and fibrin formation were not secondary to differences in the extent of laser injury since injury size between control and PGHG-treated mice was indistinguishable (FIG. 10E).

PDI [5] = biological target: T2, PDI; assay: Maleimide-pegylated biotin (MPB) binding to PDI; conditions: preincubation with compound
Procedure: PDI was then exposed to MPB in Laemmli Sample buffer for 10 minutes. Samples were subsequently analyzed for MPB labeling with […] after SDS-PAGE and immunoblotting.
Maleimide-pegylated Biotin (MPB) binding. MPB-binding experiments were performed in a reaction volume of 37.5 μL of polyphenols with 5 μM of thiol isomerase in phosphate buffered saline (PBS). The reaction mixture was incubated at 37° C. for 1 h. Subsequently, the reaction mixtures were incubated with 25 μM of MPB. The labelling was performed for 20 min at 25° C. A total of 12.5 μL of 4× Laemmli Sample Buffer with 10% v/v β-mercaptoethanol was added to each of the samples, followed by heating at 95° C. for 10 min. From each sample, 10 μL was loaded on a 4-15% SDS-PAGE TGX gel, followed by transfer on a nitrocellulose membrane. After blocking the membrane with tris-buffered saline containing 0.1% v/v Tween-20 (TBS-T) containing 5% BSA for 1 h, the membrane was incubated with a 1:2,000 dilution of streptavidin-HRP in TBS-T for an hour in the dark. Detection of the immunoblots was performed using a BioRad ChemiDoc MP imager.

[6] = tested on: bleeding following tail clip; assay: Tail clip assay of hemostasis; conditions: 25 μg/g PGHG, intraperitoneal injection
SARS-CoV-2 = conditions: cited from earlier work
ERp46 = ERp46 (Homo sapiens, UniProt Q8NBS9); assay: Di-eosin-GSSG disulfide reductase assay, ERp46; assay type: biochemical
From the text: as §1

PDI [7] = biological target: T2, PDI; assay: Insulin reductase assay; assay type: biochemical; conditions: PGHG incubated with PDI for 15 minutes
Procedure: Insulin reductase assay. Insulin was prepared by mixing 12.5 mg/mL insulin in 50 mM Tris-HCl, pH 8. 1 M HCl was carefully added to drop the pH to 2.0 for solution clarification. Once the solution clarifies, 1 M NaOH was added to rapidly adjust the pH back to 8.0. The solution was then adjusted to 1.5 mM (10 mg/mL) with 50 mM Tris-HCl, aliquoted and stored in −20° C. until use. 2× concentrations of thiol isomerases were prepared (final concentrations as indicated in each assay) and mixed with 1.2 mM DTT (final 0.3 mM) and 0.4 mM insulin (final 0.1 mM) using a thiol isomerase activity assay buffer. Insulin precipitation from enzyme-mediated reduction was assayed in 96-well clear bottom plates at 650 nm absorption.

[8] = 25 μg/g PGHG, intraperitoneal injection
[9] = PGHG 25 mg/kg (Example 1, FIG. 1)
[10] = intravenous infusion, 25 μg/g PGHG

T2 sequence (P07237 18-508): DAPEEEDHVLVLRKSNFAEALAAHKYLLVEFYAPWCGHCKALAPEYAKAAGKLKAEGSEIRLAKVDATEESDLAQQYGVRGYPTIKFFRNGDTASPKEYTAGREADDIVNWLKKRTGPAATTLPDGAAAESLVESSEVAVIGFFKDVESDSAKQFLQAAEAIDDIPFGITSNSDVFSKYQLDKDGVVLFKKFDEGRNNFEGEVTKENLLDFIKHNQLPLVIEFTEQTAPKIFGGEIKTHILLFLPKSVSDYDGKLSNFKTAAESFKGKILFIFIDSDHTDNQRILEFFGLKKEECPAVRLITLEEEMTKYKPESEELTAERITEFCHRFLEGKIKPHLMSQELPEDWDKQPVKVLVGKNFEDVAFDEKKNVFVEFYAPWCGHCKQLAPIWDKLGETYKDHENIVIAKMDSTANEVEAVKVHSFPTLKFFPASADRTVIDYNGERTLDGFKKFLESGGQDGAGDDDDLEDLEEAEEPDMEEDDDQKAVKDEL
Chain of ERp46 (Q8NBS9 33-432, species assumed): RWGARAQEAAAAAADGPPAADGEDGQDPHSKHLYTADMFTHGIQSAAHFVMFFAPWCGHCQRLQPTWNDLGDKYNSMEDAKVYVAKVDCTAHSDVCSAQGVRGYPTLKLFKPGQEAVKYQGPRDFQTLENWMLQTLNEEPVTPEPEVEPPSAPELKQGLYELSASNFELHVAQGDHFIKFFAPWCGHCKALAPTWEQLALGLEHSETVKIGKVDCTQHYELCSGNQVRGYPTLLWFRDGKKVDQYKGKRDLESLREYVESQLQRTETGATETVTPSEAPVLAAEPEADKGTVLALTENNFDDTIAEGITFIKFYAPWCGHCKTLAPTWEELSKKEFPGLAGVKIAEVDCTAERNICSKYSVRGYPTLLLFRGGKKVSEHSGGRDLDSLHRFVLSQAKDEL

In the case of O=C(O[C@@H]1[C@@H](O)[C@H](Oc2cc(O)c3c(c2)O[C@H](c2ccccc2)CC3=O)O[C@@H]2COC(=O)c3cc(O)c(O)c(O)c3-c3c(cc(O)c(O)c3O)C(=O)O[C@@H]12)c1cc(O)c(O)c(O)c1 [PGHG, pinocembrin 7-O-(3″-galloyl-4″,6″-(S)-hexahydroxydiphenoyl)-beta-D-glucose], the IC50 (SARS-CoV-2 M^pro [1]) is reported as 6.5 µM, the “inhibition of PDI (in words)” value (PDI [2]) is reported as “low micromolar range; also recorded: inhibit PDI” and the IC50 (PDI [2]; read-out: PDI reductase activity IC50) is reported as 1.5 ± 0.6 µM. The “Modeling shows gallic acid interaction with His41 or Glu166” value (SARS-CoV-2 M^pro [3]) was “His41; Glu166”, the IC50 (ERp57) was 3.3 µM and the mean fibrin fluorescence [4, 8] was 33.44±7.53 % of control. For the same compound, the mean platelet accumulation [4, 8] was 29.56±9.08 % of control, the fibrin formation [4, 9] was 21±3 % of controls and the platelet accumulation [4, 9] was 18±6 % of control levels. For the same compound, the “fibrin formation, fluorescence compared to controls” value [4, 10] was 21±3.7%, the “platelet accumulation, fluorescence compared to controls” value [4, 10] was 18±6.2% and the “effect on MPB binding to PDI” value (PDI [5]) was “no significant effect on MPB binding”. For the same compound, the “time to cessation of bleeding” value [6] was “did not prolong the time to cessation of bleeding; also recorded: did not prolong the time required for bleeding to subside”, the total blood loss [6] was “nor the total amount of blood loss; also recorded: nor did it significantly affect total blood loss” and the IC50 (SARS-CoV-2; Vero Cells, read-out: Inhibition of viral replication IC50) was 5 µM. The “inhibition of SARS-CoV-2 / infection (in words)” value (SARS-CoV-2) was “inhibitors of SARS-CoV-2”, the IC50 (ERp46) was 3.9 µM and the “inhibition of PDI in insulin reductase assay (in words)” value (PDI [7]) was “low micromolar range”.
